This passage reports IC50 and inhibition in vivo results from patent publication US5952511A, “Indolin-2-one derivatives” (Chugai Seiyaku Kabushiki Kaisha, priority 1993, dated 1999).

Test [1] deals with T1, gastrin receptors (guinea pig gastric glands) (Cavia porcellus, UniProt H0VZC5).
T1 construct: The gastric glands were isolated from the tissue with a pipette; from tissue; host or cells: isolated gastric glands from gastric mucosa of Hartley male guinea pigs
T1 sequence (H0VZC5 1-426): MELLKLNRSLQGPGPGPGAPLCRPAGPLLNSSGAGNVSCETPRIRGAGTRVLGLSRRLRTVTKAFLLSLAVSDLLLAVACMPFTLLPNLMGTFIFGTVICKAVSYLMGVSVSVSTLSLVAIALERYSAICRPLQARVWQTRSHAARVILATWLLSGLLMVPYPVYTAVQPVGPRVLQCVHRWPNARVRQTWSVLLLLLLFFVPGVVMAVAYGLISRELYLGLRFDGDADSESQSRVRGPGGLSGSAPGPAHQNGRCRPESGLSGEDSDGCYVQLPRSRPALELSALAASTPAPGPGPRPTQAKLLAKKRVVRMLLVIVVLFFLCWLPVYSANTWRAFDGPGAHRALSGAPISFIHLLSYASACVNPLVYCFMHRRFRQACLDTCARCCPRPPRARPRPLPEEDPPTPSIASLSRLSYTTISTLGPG
Briefly: Gastrin Receptor Binding Test in Guinea Pig Gastric Glands (Test Example 1). Details: species or system guinea pig (Hartley, male). As to conditions: inhibition of specific 125I-gastrin I human binding (22.5 pM), 25° C., 45 min. As for the experimental part: Gastrin Receptor Binding Test in Guinea Pig Gastric Glands
Preparation of Gastric Glands:
Guinea pig gastric glands were prepared according to the method of Chang, et al., Biochem. Biophys. Res. Commun., 134, 895 (1986). The gastric mucosa of a Hartley male guinea pig was peeled off. After washing, the mucosa was minced with scissors in buffer A (Eagle's MEM containing 2 mM L-glutamine and 25 mM HEPES; pH 7.4). After washing, the minced tissue was incubated in buffer A containing 0.025% collagenase, 0.01% soy bean trypsin inhibitor, and 0.1% BSA at 37° C. for 60 minutes under 95% O2 and 5% CO2. The gastric glands were isolated from the tissue with a pipette, washed twice with buffer A, and filtered through a mesh. Then, the gastric glands were obtained by centrifugation.
Guinea pig gastric glands were resuspended in buffer B (Hank's solution containing 10 mM HEPES and 0.2% BSA; pH 7.4) (10 ml of buffer B per guinea pig).
To 200 μl of the suspension containing the resuspended isolated gastric glands were added 20 μl of ^125 I-gastrin I human (final concentration: 22.5 pM). Then, 10 μl of a test compound or a solvent (for total binding) or 10 μM Pentagastrin (for nonspecific binding), and buffer B was added there to make a total volume of 1 ml. The reaction mixture was incubated at 25° C. for 45 minutes and then centrifuged at 12000 g. The supernatant was removed by suction, and the radioactivity of the isolated gastric glands was measured with a gamma-counter.
The specific binding of gastrin to gastrin receptors was obtained from a difference between the total binding and the nonspecific binding. The IC50 of the test compound in inhibition of specific binding was calculated.

The subject of another test is gastric acid secretion. Description: Inhibitory Activity on Gastric Acid Secretion in Pylorus Ligated Rats (Test Example 2). The class given is in vivo, rat (Sprague-Dawley, male). The settings on record: Rattus norvegicus, intraduodenal, 10 mg/kg, i.d., 4 h. As for the experimental part: Inhibitory Activity on Gastric Acid Secretion in Pyrolus Ligated Rats
Sprague-Dawley male rats weighing about 200 g were deprived of food for 24 hours while allowed water ad libitum. The abdomen was opened under anesthesia with ethyl ether, the pyrolus ligated, and the abdomen closed. The rats were deprived of food and water for 4 hours until they were surcrified with ethyl ether. The stomach was removed, and gastric juice was collected and measured. The gastric juice was centrifuged at 3000 rpm, and the supernatant was titrated up to pH 7.0 with 0.1N NaOH solution to obtain the acidity of the gastric juice. The amount of the gastric acid output was calculated by multiplying the gastric juice volume by the acidity, and the percent inhibition of acid secretion was obtained according to the following equation. A test compound, suspended in a 3% gum arabic solution, was administered intraduodenally at a dose of 2 ml/kg immediately after the pyrolus ligation.
Inhibition (%)=[(Average amount of gastric acid output in control group--Average amount of gastric acid output in test group)/Average amount of gastric acid secreted […]]×100

Regarding `CCOC(CN1C(=O)C(CC(=O)Nc2ccc(C)cc2)(NC(=O)Nc2ccc(OC)cc2)c2ccccc21)OCC` (racemic) [Example 79, (RS)-1-(2,2-Diethoxyethyl)-3-(N'-(4-methoxyphenyl)ureido)-3-((4-methylphenyl)aminocarbonylmethyl)indolin-2-one], in test [1], the IC50 amounted to 1.9 nM. The same compound came in with an inhibition in vivo at 10 mg/kg with gastric acid secretion of 47%.
For `CCOC(CN1C(=O)C(CC(=O)Nc2ccc(C)cc2)(NC(=O)Nc2cccc(C)c2)c2ccccc21)OCC` (racemic) [Example 81, (RS)-1-(2,2-Diethoxyethyl)-3-((4-methylphenyl)aminocarbonylmethyl)-3-(N'-(3-methylphenyl)ureido)indolin-2-one] the same measures were 1.6 nM and 59%.
The compound `CCOC(CN1C(=O)C(CC(=O)Nc2ccc(C)cc2)(NC(=O)Nc2ccc(F)cc2)c2ccccc21)OCC` (racemic) [Example 82, (RS)-1-(2,2-Diethoxyethyl)-3-(N'-(4-fluorophenyl)ureido)-3-((4-methylphenyl)aminocarbonylmethyl)indolin-2-one] showed an IC50 in test [1] of 6.2 nM. In the test on gastric acid secretion, this compound displayed an inhibition in vivo at 10 mg/kg of 56%.
Taken in the same sequence, the figures for `CCOC(CN1C(=O)C(CC(=O)Nc2ccc(C)cc2)(NC(=O)Nc2ccccc2)c2ccccc21)OCC` (racemic) [Example 84, (RS)-1-(2,2-Diethoxyethyl)-3-((4-methylphenyl)aminocarbonylmethyl)-3-(N'-phenylureido)indolin-2-one] were 3.4 nM and 68%.
For the compound `CCOC(CN1C(=O)C(CC(=O)Nc2ccc(C)cc2)(NC(=O)Nc2cccc(OC)c2)c2ccccc21)OCC` (racemic) [Example 85, (RS)-1-(2,2-Diethoxyethyl)-3-(N'-(3-methoxyphenyl)ureido)-3-((4-methylphenyl)aminocarbonylmethyl)indolin-2-one], the 50% inhibitory concentration (IC50) in test [1] turned out to be 1.2 nM. In the test on gastric acid secretion, this compound had an inhibition in vivo at 10 mg/kg of 72%.
For `CCOC(CN1C(=O)C(CC(=O)Nc2ccc(C)cc2)(NC(=O)Nc2cccc(Cl)c2)c2ccccc21)OCC` (racemic) [Example 89, (RS)-3-(N'-(3-Chlorophenyl)ureido)-1-(2,2-diethoxyethyl)-3-((4-methylphenyl)aminocarbonylmethyl)indolin-2-one] the same measures were 5.8 nM and 65%.
Taken in the same sequence, the figures for `CCOC(CN1C(=O)C(CC(=O)Nc2ccc(C)cc2)(NC(=O)Nc2cccc(F)c2)c2ccccc21)OCC` (racemic) [Example 94, (RS)-1-(2,2-Diethoxyethyl)-3-(N'-(3-fluorophenyl)ureido)-3-((4-methylphenyl)aminocarbonylmethyl)indolin-2-one] were 3.5 nM and 70%.
Compound `CCOC(CN1C(=O)C(CC(=O)Nc2ccc(F)cc2)(NC(=O)Nc2ccc(C)cc2)c2ccccc21)OCC` (racemic) [Example 124, (RS)-1-(2,2-Diethoxyethyl)-3-((4-fluorophenyl)aminocarbonylmethyl)-3-(N'-(4-methylphenyl)ureido)indolin-2-one] had an IC50 in test [1] of 5.3 nM. The compound further showed an inhibition in vivo at 10 mg/kg in the test on gastric acid secretion of 54%.
Taken in the same sequence, the figures for `CCOC(CN1C(=O)C(CC(=O)Nc2ccc(N)cc2)(NC(=O)Nc2ccc(C)cc2)c2ccccc21)OCC` (racemic) [Example 125, (RS)-3-((4-Aminophenyl)aminocarbonylmethy)-1-(2,2-diethoxyethyl)-3-(N'-(4-methylphenyl)ureido)indolin-2-one] were 2.5 nM and 54%.
For `CCOC(CN1C(=O)C(CC(=O)Nc2ccc(N(C)C(=O)C(F)(F)F)cc2)(NC(=O)Nc2ccc(C)cc2)c2ccccc21)OCC` (racemic) [Example 131, (RS)-1-(2,2-Diethoxyethyl) 3-((4-(N-trifluoromethylcarbonyl-N-methylamino)phenyl)aminocarbonylmethyl)-3-(N'-(4-methylphenyl)ureido)indolin-2-one] the same measures were 23 nM and 65%.
Taken in the same sequence, the figures for `CCOC(CN1C(=O)C(CC(=O)Nc2ncccn2)(NC(=O)Nc2ccc(C)cc2)c2ccccc21)OCC` (racemic) [Example 132, (RS)-1-(2,2-Diethoxyethyl)-3-(N'-(4-methylphenyl)ureido)-3-((2-pyrimidinyl)aminocarbonylmethyl)indolin-2-one] were 8.9 nM and 52%.
Regarding `CCOC(CN1C(=O)C(CC(=O)Nc2ccc(OC)cc2)(NC(=O)Nc2cccc(OC)c2)c2ccccc21)OCC` (racemic) [Example 148, (RS)-1-(2,2-Diethoxyethyl)-3-((4-methoxyphenyl)aminocarbonylmethyl)-3-(N'-(3-methoxyphenyl)ureido)indolin-2-one], the IC50 in test [1] is 1.1 nM. In the test with gastric acid secretion, at 10 mg/kg the inhibition in vivo was 63%.
Taken in the same sequence, the figures for `CCOC(CN1C(=O)C(CC(=O)Nc2ccc(Cl)cc2)(NC(=O)Nc2cccc(OC)c2)c2ccccc21)OCC` (racemic) [Example 149, (RS)-3-((4-Chlorophenyl)aminocarbonylmethyl)-1-(2,2-diethoxyethyl)-3-(N'-(3-methoxyphenyl)ureido)indolin-2-one] were 0.93 nM and 69%.
For `CCOC(CN1C(=O)C(CC(=O)Nc2cccc(OC)c2)(NC(=O)Nc2cccc(OC)c2)c2ccccc21)OCC` (racemic) [Example 151, (RS)-1-(2,2-Diethoxyethyl)-3-((3-methoxyphenyl)aminocarbonylmethyl)-3-(N'-(3-methoxyphenyl)ureido)indolin-2-one] the same measures were 2.9 nM and 62%.
Taken in the same sequence, the figures for `CCOC(CN1C(=O)C(CC(=O)Nc2cccc(C)c2)(NC(=O)Nc2cccc(OC)c2)c2ccccc21)OCC` (racemic) [Example 152, (RS)-1-(2,2-Diethoxyethyl)-3-(N'-(3-methoxyphenyl)ureido)-3-((3-methylphenyl)aminocarbonylmethyl)indolin-2-one] were 2.1 nM and 64%.
On to `CCOC(CN1C(=O)C(CC(=O)Nc2ccc(F)cc2)(NC(=O)Nc2cccc(OC)c2)c2ccccc21)OCC` (racemic) [Example 154, (RS)-1-(2,2-Diethoxyethyl)-3-((4-fluorophenyl)aminocarbonylmethyl)-3-(N'-(3-methoxyphenyl)ureido)indolin-2-one], for which the IC50 in test [1] amounted to 1 nM. The compound also yielded an inhibition in vivo at 10 mg/kg with gastric acid secretion of 59%.
With `CCOC(CN1C(=O)C(CC(=O)Nc2ccc(Cl)cc2)(NC(=O)Nc2ccc(Cl)cc2)c2ccccc21)OCC` (racemic) [Example 168, (RS)-3-((4-Chlorophenyl)aminocarbonylmethyl)-3-(N'-(4-chlorophenyl)ureido)-1-(2,2-diethoxyethyl)indolin-2-one], the IC50 in test [1] turned out to be 2.6 nM. In addition, 10 mg/kg produced 61% inhibition in vivo in the test on gastric acid secretion.
For `CCOC(CN1C(=O)C(CC(=O)Nc2ccc(Cl)cc2)(NC(=O)Nc2ccc(OC)cc2)c2ccccc21)OCC` (racemic) [Example 169, (RS)-3-(-(4-Chlorophenyl)aminocarbonylmethyl)-1-(2,2-diethoxyethyl)-3-(N'-(4-methoxyphenyl)ureido)indolin-2-one] the same measures were 1.9 nM and 52%.
Taken in the same sequence, the figures for `CCOC(CN1C(=O)C(CC(=O)Nc2ccc(F)cc2)(NC(=O)Nc2ccc(F)cc2)c2ccccc21)OCC` (racemic) [Example 170, (RS)-1-(2,2-Diethoxyethyl)-3-((4-fluorophenyl)aminocarbonylmethyl)-3-(N'-(4-fluorophenyl)ureido)indolin-2-one] were 5.1 nM and 63%.

One may read the IC50 as the concentration at which inhibition is half-maximal. By inhibition in vivo is commonly meant how much of the control response was suppressed.
